Data taken from the supplement of paper PMC10307832.

Columns and labels:
Assay in all cases: relative viability (nuclei count vs DMSO), 5 days (fraction); higher = more cells survive
AZD8055 + Pictilisib = compound: COc1ccc(-c2ccc3c(N4CCOC[C@@H]4C)nc(N4CCOC[C@@H]4C)nc3n2)cc1CO [AZD8055] + CS(=O)(=O)N1CCN(Cc2cc3nc(-c4cccc5[nH]ncc45)nc(N4CCOCC4)c3s2)CC1 [Pictilisib] (partner 1 µM)
Procedure, shortened: (§1)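 Medians of duplicate plates are given as relative viability. That measure is the nuclei count in treated wells divided by the count in vehicle wells. Counts were taken on 4× images of lung cancer cell lines in 1536-well plates, 5 days after pin-tool dosing the day after seeding with one drug alone or a fixed anchor-drug dose plus five library-drug doses (not always all listed) in √10 steps.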

AZD8055 + Phenformin = compound: COc1ccc(-c2ccc3c(N4CCOC[C@@H]4C)nc(N4CCOC[C@@H]4C)nc3n2)cc1CO [AZD8055] + N=C(N)NC(=N)NCCc1ccccc1 [Phenformin] (partner 250 µM)
Procedure, shortened: as §1

AZD8055 + Palbociclib = compound: COc1ccc(-c2ccc3c(N4CCOC[C@@H]4C)nc(N4CCOC[C@@H]4C)nc3n2)cc1CO [AZD8055] + CC(=O)c1c(C)c2cnc(Nc3ccc(N4CCNCC4)cn3)nc2n(C2CCCC2)c1=O [Palbociclib] (partner 0.5 µM)
Procedure, shortened: as §1

AZD8055 + Decitabine = compound: COc1ccc(-c2ccc3c(N4CCOC[C@@H]4C)nc(N4CCOC[C@@H]4C)nc3n2)cc1CO [AZD8055] + Nc1ncn([C@H]2C[C@H](O)[C@@H](CO)O2)c(=O)n1 [Decitabine] (partner 2 µM)
Procedure, shortened: as §1

Row | Cell Line | relative viability (AZD8055 + Pictilisib; first compound 0.01 µM) | relative viability (AZD8055 + Pictilisib; first compound 0.03162 µM) | relative viability (AZD8055 + Pictilisib; first compound 0.1 µM) | relative viability (AZD8055 + Pictilisib; first compound 0.3162 µM) | relative viability (AZD8055 + Pictilisib; first compound 1 µM) | relative viability (AZD8055 + Phenformin; first compound 0.01 µM) | relative viability (AZD8055 + Phenformin; first compound 0.03162 µM) | relative viability (AZD8055 + Phenformin; first compound 0.1 µM) | relative viability (AZD8055 + Phenformin; first compound 0.3162 µM) | relative viability (AZD8055 + Phenformin; first compound 1 µM) | relative viability (AZD8055 + Palbociclib; first compound 0.01 µM) | relative viability (AZD8055 + Palbociclib; first compound 0.03162 µM) | relative viability (AZD8055 + Palbociclib; first compound 0.1 µM) | relative viability (AZD8055 + Palbociclib; first compound 0.3162 µM) | relative viability (AZD8055 + Palbociclib; first compound 1 µM) | relative viability (AZD8055 + Decitabine; first compound 0.01 µM) | relative viability (AZD8055 + Decitabine; first compound 0.03162 µM) | relative viability (AZD8055 + Decitabine; first compound 0.1 µM) | relative viability (AZD8055 + Decitabine; first compound 0.3162 µM) | relative viability (AZD8055 + Decitabine; first compound 1 µM)
1 | H3255 | 0.518 | 0.45 | 0.249 | 0.277 | 0.272 | 0.349 | 0.397 | 0.332 | 0.279 | 0.305 | 0.3 | 0.303 | 0.314 | 0.288 | 0.292 | 0.535 | 0.568 | 0.48 | 0.316 | 0.281
2 | EPLC-272H | 0.339 | 0.307 | 0.23 | 0.261 | 0.212 | 0.326 | 0.214 | 0.216 | 0.198 | 0.212 | 0.319 | 0.303 | 0.309 | 0.27 | 0.219 | 0.41 | 0.265 | 0.272 | 0.248 | 0.226
3 | PC-3 [JPC-3] | 0.616 | 0.81 | 0.645 | 0.633 | 0.381 | 0.464 | 0.479 | 0.47 | 0.464 | 0.456 | 0.515 | 0.557 | 0.516 | 0.435 | 0.458 | 0.902 | 0.912 | 0.797 | 0.758 | 0.614
4 | NCI-H1793 | 0.288 | 0.268 | 0.177 | 0.238 | 0.156 | 0.405 | 0.272 | 0.196 | 0.203 | 0.207 | 0.216 | 0.218 | 0.163 | 0.22 | 0.211 | 0.435 | 0.219 | 0.207 | 0.181 | 0.221
5 | EKVX | 0.485 | 0.44 | 0.3 | 0.245 | 0.169 | 0.225 | 0.247 | 0.229 | 0.209 | 0.188 | 0.466 | 0.365 | 0.278 | 0.211 | 0.173 | 0.361 | 0.286 | 0.298 | 0.251 | 0.26
6 | ChaGo-K-1 | 0.817 | 0.848 | 0.801 | 0.49 | 0.346 | 0.508 | 0.467 | 0.494 | 0.407 | 0.374 | 1.01 | 0.87 | 0.864 | 0.728 | 0.652 | 0.506 | 0.425 | 0.528 | 0.494 | 0.441
7 | NCI-H23 | 0.472 | 0.314 | 0.314 | 0.251 | 0.293 | 0.785 | 0.778 | 0.713 | 0.465 | 0.403 | 0.439 | 0.367 | 0.295 | 0.193 | 0.187 | 0.252 | 0.287 | 0.262 | 0.225 | 0.262
8 | EMC-BAC-2 | 0.511 | 0.494 | 0.475 | 0.279 | 0.286 | 0.5 | 0.42 | 0.36 | 0.283 | 0.258 | 0.477 | 0.437 | 0.376 | 0.31 | 0.29 | 1.02 | 0.875 | 0.817 | 0.498 | 0.505
